Test results taken from publication PMC6181586 (Chemical communications (Cambridge, England), 2018).

Molecular target: CatB (Homo sapiens, UniProt P07858)
Test: SDS-PAGE of adduct formation with CatB
Type: biochemical
Conditions: co-incubation with conjugates and CatB, SDS-PAGE autoradiography

With CCCNC(=O)[C@H]1O[C@@H]1C(=O)N[C@H](C(=O)N1CCC[C@H]1C(=O)O)[C@@H](C)CC [CA-074] the “Effect of co-incubation on CatB adducts of the conjugates” value was “eliminated observable CatB adducts”.
